“Also recorded” adds a separate entry of the source.
System: circulating mononuclear cells
Experiment: Circulating cell biomarkers by flow cytometry in serial blood samples
Assay type: in vivo, human
Method: Experimental design: In this single-arm, two-stage phase 2 study, patients with metastatic TNBC with measurable disease by RECIST and up to 3 lines of prior chemotherapy for metastatic disease received cabozantinib 60 mg daily on a 21-day cycle. Patients were restaged 6 weeks following treatment initiation and every 9 weeks thereafter. The primary endpoint was objective response rate (ORR). Predefined secondary endpoints included progression free survival (PFS) and toxicity. Here, we examined cellular biomarkers using flow cytometry in serial blood samples collected at days 0 (baseline/pre-treatment), 8, 22, 43, and 64 of cabozantinib treatment. Mixed effect models were used to evaluate the changes of biomarker levels over time from baseline to day 64. Wilcoxon signed rank test were used to evaluate whether the change of biomarker levels from baseline to day 8 were different by clinical benefit. Adjusted p-values controlling false discovery rate were used to adjust for multiple comparisons.
The primary endpoint was the activity of cabozantinib, as defined by objective response rate (ORR) in patients with mTNBC. Predefined secondary endpoints included progression-free survival (PFS), toxicity, and pain. Correlative studies included analysis of MET and phospho-MET expression in archival tumor tissue, and molecular and cellular biomarkers of cabozantinib. Cellular biomarkers were examined using flow cytometry in serial blood samples collected at days 0 (baseline/pre-treatment), 8, 22, 43, and 64 of cabozantinib treatment. Mixed effect models were used to evaluate the changes of biomarker levels over time from baseline to day 64. Wilcoxon signed rank test were used to evaluate whether the change of biomarker levels from baseline to day 8 were different by clinical benefit. Adjusted p-values controlling false discovery rate were used to adjust for multiple comparisons.
Circulating Biomarker Assays: Potential biomarkers of cabozantinib activity were identified by measuring plasma proteins at baseline, on day 8 of therapy, on day 1 of each cycle of therapy, and, if available, at the time of progression. Eight milliliters of blood was collected in purple top (plasma EDTA) vacutainers and shipped on wet ice to a Clinical Laboratory Improvement Amendments-certified core in the Steele Laboratories (Massachusetts General Hospital), where whole blood was separated by centrifugation into cellular fraction and plasma. The fraction of stem/progenitor cell, lymphocyte, and myeloid populations of total circulating mononuclear cells were counted by flow cytometry using a LSR-II cytometer and FACSDiva software in fresh blood samples using the following markers: CD3, CD4, CD8, CD14, CD25, CD34, CD45, CD56, CD127, and CD133 (Becton Dickinson, Franklin Lakes, NJ, www.bd.com). Plasma was prepared in the standard fashion and stored at −78° C. until collection and analysis of all samples. The biomarkers measured included VEGF, placental growth factor (PlGF), VEGF-C, VEGF-D, soluble VEGFR1 (sVEGFR1), basic fibroblast growth factor (bFGF), and sTie-2 (using a 7-plex Growth Factor array) and granulocyte-macrophage colony stimulating factor (GM-CSF), interferon gamma (IFN-g), tumor necrosis factor alpha (TNF-a), and interleukin-1beta (IL-1b), IL-2, IL-6, IL-8, IL-10, and IL-12 heterodimer p70 (using a 9-plex Inflammatory Factor array; both Meso Scale Discovery, Gaithersburg, MD, www.mesoscale.com); and HGF, sMET, carbonic anhydrase IX (CAIX), stromal cell-derived factor 1 a (SDF1a), and sVEGFR2 by single analyte enzyme-linked immunosorbent assay (R&D Systems, Minneapolis, MN, www.rndsystems.com).
Descriptive statistics were used to summarize biomarker values at protocol-specific time points. […] The Wilcoxon signed rank test assessed biomarker change from day 1 to 8. Mixed effects linear models assessed the change in biomarker values at days 1, 8, 22, 43, and 64; values beyond day 64 were not analyzed because of the small number of patients still on protocol. […]

[1] = after cabozantinib, baseline to day 64

COc1cc2nccc(Oc3ccc(NC(=O)C4(C(=O)Nc5ccc(F)cc5)CC4)cc3)c2cc1OC [cabozantinib]
CD3+ (lymphocytes), Median (Day 1 (baseline)): 34.73 % of WBC | CD3 + CD8 − CD4 + CD25+, Median (Day 1 (baseline)): 0.66 % of WBC | CD3 + CD8 − CD4 + CD25−, Median (Day 1 (baseline)): 11.41 % of WBC | CD3 + CD8 − CD4+, Median (Day 1 (baseline)): 0.15 % of WBC | CD3 + CD56+ (NKT cells), Median (Day 1 (baseline)): 0.77 % of WBC | CD3 − CD56+ (NK cells), Median (Day 1 (baseline)): 5.84 % of WBC | CD14+ (monocytes), Median (Day 1 (baseline)): 42.20 % of WBC | CD34 + CD133+ cells, Median (Day 1 (baseline)): 0.17 % of WBC | CD3+ (lymphocytes), Median (Day 8): 24.06 % of WBC | CD3 + CD8 − CD4 + CD25+, Median (Day 8): 0.79 % of WBC | CD3 + CD8 − CD4 + CD25−, Median (Day 8): 14.18 % of WBC | CD3 + CD8 − CD4+, Median (Day 8): 0.17 % of WBC | CD3 + CD56+ (NKT cells), Median (Day 8): 0.85 % of WBC | CD3 − CD56+ (NK cells), Median (Day 8): 7.27 % of WBC | CD14+ (monocytes), Median (Day 8): 31.44 % of WBC | CD34 + CD133+ cells, Median (Day 8): 0.11 % of WBC | CD3+ (lymphocytes), Median (Day 22): 33.56 % of WBC | CD3 + CD8 − CD4 + CD25+, Median (Day 22): 0.59 % of WBC | CD3 + CD8 − CD4 + CD25−, Median (Day 22): 16.41 % of WBC | CD3 + CD8 − CD4+, Median (Day 22): 0.18 % of WBC | CD3 + CD56+ (NKT cells), Median (Day 22): 0.54 % of WBC | CD3 − CD56+ (NK cells), Median (Day 22): 8.51 % of WBC | CD14+ (monocytes), Median (Day 22): 19.03 % of WBC | CD34 + CD133+ cells, Median (Day 22): 0.12 % of WBC | CD3+ (lymphocytes), Median (Day 43): 32.79 % of WBC | CD3 + CD8 − CD4 + CD25+, Median (Day 43): 0.73 % of WBC | CD3 + CD8 − CD4 + CD25−, Median (Day 43): 17.71 % of WBC | CD3 + CD8 − CD4+, Median (Day 43): 0.19 % of WBC | CD3 + CD56+ (NKT cells), Median (Day 43): 1.02 % of WBC | CD3 − CD56+ (NK cells), Median (Day 43): 6.50 % of WBC | CD14+ (monocytes), Median (Day 43): 24.79 % of WBC | CD34 + CD133+ cells, Median (Day 43): 0.18 % of WBC | CD3+ (lymphocytes), Median (Day 64): 30.99 % of WBC | CD3 + CD8 − CD4 + CD25+, Median (Day 64): 0.61 % of WBC | CD3 + CD8 − CD4 + CD25−, Median (Day 64): 15.29 % of WBC | CD3 + CD8 − CD4+, Median (Day 64): 0.19 % of WBC | CD3 + CD56+ (NKT cells), Median (Day 64): 0.98 % of WBC | CD3 − CD56+ (NK cells), Median (Day 64): 8.13 % of WBC | CD14+ (monocytes), Median (Day 64): 23.48 % of WBC | CD34 + CD133+ cells, Median (Day 64): 0.11 % of WBC | change in CD4+ cells (CD3+CD4+CD8− T) [1]: trend for increase; also recorded: nonsignificant trend toward increase | change in CD14+ monocytes [1]: persistent decrease | change in CD56+ NK cells (CD3−CD56+ NK lymphocytes) [1]: trend for increase; also recorded: nonsignificant trend toward increase | change in circulating CD3+ cells [1]: significant increase; also recorded: persistent increase | change in circulating CD8+ T cells (CD3+CD4−CD8+ T lymphocytes) [1]: significant increase | change in fraction of CD3+CD56+ NKT cells (baseline to day 64): no significant changes | change in fraction of CD4+CD25+ Tregs (baseline to day 64): no significant changes | change in fraction of CD4+CD127+ memory T cells (baseline to day 64): no significant changes | change in fraction of CD133+ progenitor/stem cells (baseline to day 64): no significant changes | effect on circulating cell biomarkers (summary) (metastatic TNBC patients): systemic changes consistent with activation of the immune system

From US20240148714A1, “Triple Negative Breast Cancer Treatment Method” (Exelixis, Inc., priority 2016, published 2024)
